How the values were obtained:
human ALX receptor = target: T1, human ALX receptor (Homo sapiens, UniProt P25090); assay: Intracellular calcium measurements (FLIPR), agonistic activity in HEK293-hALXR-Gα16 cells; format: cell-based; conditions: Fluo-4 calcium FLIPR, normalized to WKYMVm 10 nM
T1 construct: expressed in transfected cells; host or cells: HEK293 (HEK293-hALXR-Gα16)
T1 sequence (P25090 1-351): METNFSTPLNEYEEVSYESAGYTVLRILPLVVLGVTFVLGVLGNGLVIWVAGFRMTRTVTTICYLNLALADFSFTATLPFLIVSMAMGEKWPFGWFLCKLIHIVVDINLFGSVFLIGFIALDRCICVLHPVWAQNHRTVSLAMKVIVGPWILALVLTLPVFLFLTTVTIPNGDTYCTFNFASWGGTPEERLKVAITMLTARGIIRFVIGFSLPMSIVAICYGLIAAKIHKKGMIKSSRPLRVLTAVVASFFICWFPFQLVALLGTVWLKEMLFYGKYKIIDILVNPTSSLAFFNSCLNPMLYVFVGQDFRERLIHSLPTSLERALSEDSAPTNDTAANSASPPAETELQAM
Procedure, shortened: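 HEK293 cells expressing hALXR and Gα16 were loaded with 1 μM Fluo-4 AM and 20 mM HEPES for 60 min at 37°C, then exposed to serially diluted compound. FLIPR fluorescence was read at ex 488/em 540 nm. Baseline-subtracted peak responses were normalized to 10 nM WKYMVm.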

human FPRL2 = target: T2, human FPRL2 (Homo sapiens, UniProt P25089); assay: Intracellular calcium measurements (FLIPR), agonistic activity in HEK293-hFPRL2-Gα16 cells; format: cell-based; conditions: Fluo-4 calcium FLIPR, normalized to GLY14-Humanin 100 nM
T2 construct: expressed in transfected cells; host or cells: HEK293 (HEK293-hFPRL2-Gα16)
T2 sequence (P25089 1-353): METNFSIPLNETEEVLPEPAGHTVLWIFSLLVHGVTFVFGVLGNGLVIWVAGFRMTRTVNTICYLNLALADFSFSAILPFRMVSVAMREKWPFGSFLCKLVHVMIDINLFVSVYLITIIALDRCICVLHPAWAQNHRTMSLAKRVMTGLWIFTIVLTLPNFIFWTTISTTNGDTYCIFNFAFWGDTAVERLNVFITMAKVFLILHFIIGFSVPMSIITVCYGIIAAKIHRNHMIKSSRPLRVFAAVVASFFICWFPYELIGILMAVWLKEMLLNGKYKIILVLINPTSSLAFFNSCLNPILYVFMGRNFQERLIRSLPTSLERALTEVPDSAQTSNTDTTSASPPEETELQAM
Procedure, shortened: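 Peak values after baseline subtraction are expressed relative to 100 nM Gly14-Humanin; compounds diluted in assay buffer from 10 mM DMSO stocks.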

Structure (SMILES)	EC50 (human ALX receptor)	EC50 (human FPRL2)
Cc1nc(CCNC(=O)[C@H]2[C@H](C(=O)Nc3ccc(Br)cc3)[C@@H]3C=C[C@H]2C32CC2)[nH]c1C (relative stereo) [Example 64, (5R*)—N^5-(4-Bromophenyl)-(6R*)—N^6-(2-(4,5-dimethyl-1H-imidazol-2-yl)-ethyl)-(4S*,7R*)-[4,7-ethenylene-spiro[2.4]heptane]-5,6-dicarboxamide]	19 nM	68 nM
CCCCNC(=O)[C@H]1[C@H](C(=O)Nc2ccc(Br)cc2)[C@@H]2C=C[C@H]1C21CC1 (relative stereo) [Example 74, (5R*)—N^5-(4-Bromophenyl)-(6R*)—N^6-(butyl)-(4S*,7R*)-[4,7-ethenylene-spiro[2.4]heptane]-5,6-dicarboxamide]	72 nM	18200 nM
NCCCCCNC(=O)[C@H]1[C@H](C(=O)Nc2ccc(Br)cc2)[C@H]2C=C[C@@H]1C21CC1 (relative stereo) [Example 340, (5R*)—N^5-(5-Aminopentyl)-(6R*)—N^6-(4-bromophenyl)-(4S*,7R*)-[4,7-ethenylene-spiro[2.4]heptane]-5,6-dicarboxamide]	30 nM	255 nM
O=C(Nc1ncc(Br)s1)C1C(C(=O)NC2CCC(CO)CC2)C2CCC1C21CC1 (single isomer, unassigned) [Example 410]	855 nM	18200 nM
O=C(Nc1ncc(Br)s1)C1C(C(=O)NC2CCC(CO)CC2)C2CCC1C21CC1 (single isomer, unassigned) [Example 411]	61 nM	6520 nM
CC(C)(C)OC(=O)NCCNC(=O)C1C(C(=O)Nc2ccc(Br)cc2)C2C=CC1C21CC1 (stereo not drawn) [Example 27, (5R*)—N^5-(4-Bromophenyl)-(6R*)—N^6-(2-tert-butoxycarbonyl-amino-ethyl)-(4S*,7R*)-[4,7-ethenylene-spiro[2.4]heptane]-5,6-dicarboxamide]	4.2 nM	1960 nM
COCCN(CCOC)C(=O)[C@H]1[C@H](C(=O)Nc2ccc(Br)cc2)[C@@H]2C=C[C@H]1C21CC1 [Example 63, (5R)—N^5-(4-Bromophenyl)-(6R)—N^6,N^6-bis-(2-methoxy-ethyl)-(4S,7R)-[4,7-ethenylene-spiro[2.4]heptane]-5,6-dicarboxamide]	24 nM	3950 nM
CNC(=O)C(NC(=O)C1C(C(=O)Nc2ccc(Br)cc2)C2C=CC1C21CC1)C(C)(C)C [Example 96, (5R*)—N^5-(4-Bromophenyl)-(6R*)—N^6—[(2S)-3,3-dimethyl-1-(methylamino)-1-oxobutan-2-yl]-(4S*,7R*)-[4,7-ethenylene-spiro[2.4]heptane]-5,6-dicarboxamide]	373 nM	8050 nM
COCC(Cc1ccccc1)NC(=O)C1C(C(=O)Nc2ccc(Br)cc2)C2C=CC1C21CC1 [Example 100, (5R*)—N^5-(4-Bromophenyl)-(6R*)—N^6-[(1S)-2-methoxy-1-benzyl-ethyl]-(4S*,7R*)-[4,7-ethenylene-spiro[2.4]heptane]-5,6-dicarboxamide]	735 nM	6110 nM
Cc1cc(C)n(CCC(=O)NCC2C(C(=O)Nc3ccc(Br)cc3)C3C=CC2C32CC2)n1 (stereo not drawn) [Example 159, (5R*)—N^5-(4-Bromo-phenyl)-(6R*)-6-[(3-(3,5-dimethyl-pyrazol-1-yl)-propionylamino)-methyl]-(4S*,7R*)-[4,7-ethenylene-spiro[2.4]heptane]-5-carboxamide]	13 nM	2370 nM
O=C(NCC1C(C(=O)Nc2ccc(Br)cc2)C2C=CC1C21CC1)c1cnoc1-c1ccccc1 (stereo not drawn) [Example 160, (5R*)—N^5-(4-Bromo-phenyl)-(6R*)-6-{[(5-phenyl-isoxazole-4-carbonyl)-amino]-methyl}-(4S*,7R*)-[4,7-ethenylene-spiro[2.4]heptane]-5-carboxamide]	37 nM	> 25000 nM

The next lines start with the values.

EC50 (human ALX receptor)	EC50 (human FPRL2)	Structure (SMILES)
77 nM	7.4 nM	Cc1nc(CCNC(=O)[C@H]2[C@H](C(=O)Nc3ccc(Br)cc3)[C@H]3C=C[C@@H]2C32CC2)[nH]c1C (relative stereo) [Example 199, (5R*)—N^5-(2-(4,5-Dimethyl-1H-imidazol-2-yl)-ethyl)-(6R*)—N^6-(4-bromophenyl)-(4S*,7R*)-[4,7-ethenylene-spiro[2.4]heptane]-5,6-dicarboxamide]
19 nM	1480 nM	NCCCCNC(=O)[C@H]1[C@H](C(=O)Nc2ccc(Br)cc2)[C@H]2C=C[C@@H]1C21CC1 (relative stereo) [Example 339, (5R*)—N^5-(4-Aminobutyl)-(6R*)—N^6-(4-bromophenyl)-(4S*,7R*)-[4,7-ethenylene-spiro[2.4]heptane]-5,6-dicarboxamide]
2.1 nM	356 nM	O=C(Nc1ccc(Br)cc1)C1C(C(=O)NC2CCC(CN3CCCC3)CC2)C2C=CC1C21CC1 (single isomer, unassigned) [Example 218]
208 nM	398 nM	O=C(Nc1ccc(Br)cc1)C1C(C(=O)NC2CCC(CN3CCCC3)CC2)C2C=CC1C21CC1 (single isomer, unassigned) [Example 222]
0.13 nM	1150 nM	NCC1CCC(NC(=O)C2C(C(=O)Nc3ccc(Br)cc3)C3C=CC2C32CC2)CC1 (single isomer, unassigned) [Example 420]
13 nM	1700 nM	NCC1CCC(NC(=O)C2C(C(=O)Nc3ccc(Br)cc3)C3C=CC2C32CC2)CC1 (single isomer, unassigned) [Example 421]
0.16 nM	571 nM	NCCCCCNC(=O)C1C(C(=O)Nc2ccc(Br)cc2)C2C=CC1C21CC1 (stereo not drawn) [Example 1, (5R*)—N^5-(4-Bromophenyl)-(6R*)—N^6-(5-amino-pentyl)-(4S*,7R*)-[4,7-ethenylene-spiro[2.4]heptane]-5,6-dicarboxamide]
0.1 nM	46 nM	O=C(NCCCCN1CCCC1)[C@H]1[C@H](C(=O)Nc2ccc(Br)cc2)[C@@H]2C=C[C@H]1C21CC1 [Example 2, (5R)—N^5-(4-Bromophenyl)-(6R)—N^6-(4-pyrrolidin-1-yl-butyl)-(4S,7R)-[4,7-ethenylene-spiro[2.4]heptane]-5,6-dicarboxamide]
0.41 nM	1260 nM	CN(C)CCNC(=O)[C@H]1[C@H](C(=O)Nc2ccc(Br)cc2)[C@@H]2C=C[C@H]1C21CC1 [Example 6, (5R)—N^5-(4-Bromophenyl)-(6R)—N^6-(2-N,N-dimethyl-amino-ethyl)-(4S,7R)-[4,7-ethenylene-spiro[2.4]heptane]-5,6-dicarboxamide]
1 nM	1300 nM	O=C(NCCCO)[C@H]1[C@H](C(=O)Nc2ccc(Br)cc2)[C@@H]2C=C[C@H]1C21CC1 [Example 12, (5R)—N^5-(4-Bromophenyl)-(6R)—N^6-(3-hydroxy-propyl)-(4S,7R)-[4,7-ethenylene-spiro[2.4]heptane]-5,6-dicarboxamide]
1.1 nM	4620 nM	NC(=O)CCNC(=O)[C@H]1[C@H](C(=O)Nc2ccc(Br)cc2)[C@@H]2C=C[C@H]1C21CC1 [Example 13, (5R)—N^5-(4-Bromophenyl)-(6R)—N^6-(2-carbamoyl-ethyl)-(4S,7R)-[4,7-ethenylene-spiro[2.4]heptane]-5,6-dicarboxamide]
5 nM	1410 nM	COCCNC(=O)[C@H]1[C@H](C(=O)Nc2ccc(Br)cc2)[C@@H]2C=C[C@H]1C21CC1 [Example 31, (5R)—N^5-(4-Bromophenyl)-(6R)—N^6-(2-methoxy-ethyl)-(4S,7R)-[4,7-ethenylene-spiro[2.4]heptane]-5,6-dicarboxamide]
8.3 nM	57 nM	Cc1nc(CCNC(=O)C2C(C(=O)Nc3ccc(Br)cc3)C3CCC2C32CC2)[nH]c1C (stereo not drawn) [Example 112, (5R*)—N^5-(4-Bromophenyl)-(6R*)—N^6-(2-(4,5-dimethyl-1H-imidazol-2-yl)-ethyl)-(4S*,7R*)-[4,7-ethylene-spiro[2.4]heptane]-5,6-dicarboxamide]
0.35 nM	15 nM	O=C(NCCCCN1CCCC1)[C@H]1[C@H](C(=O)Nc2ccc(Br)cc2)[C@@H]2CC[C@H]1C21CC1 [Example 113, (5R)—N^5-(4-Bromophenyl)-(6R)—N^6-(4-pyrrolidin-1-yl-butyl)-(4S,7R)-[4,7-ethylene-spiro[2.4]heptane]-5,6-dicarboxamide]
835 nM	1600 nM	O=C(NCCCCN1CCCC1)C1C(C(=O)NCCCn2ccnc2)C2C=CC1C21CC1 (stereo not drawn) [Example 141, (5R*)—N^5-(3-(1H-Imidazol-1-yl)-propyl)-(6R*)—N^6-(4-pyrrolidin-1-yl-butyl)-(4S*,7R*)-[4,7-ethenylene-spiro[2.4]heptane]-5,6-dicarboxamide]

— patent publication US8563714B2, “Bridged spiro [2.4] heptane derivatives as ALX receptor and/or FPRL2 agonists” (Actelion Pharmaceuticals Ltd., priority 2009, dated 2013)
